Our source for the inhibition values is US20110039846A1, “IMINOPYRIDINE DERIVATIVES AND USE THEREOF” (TAKEDA PHARMACEUTICAL COMPANY LIMITED, priority 2008, published 2011).

Structures are written as SMILES. Counter-ions that a name gives are not always drawn.

For this assay, the target named is T1, human α1D adrenaline receptor (Homo sapiens, UniProt P25100).
T1 construct: expressed in transfected cells
T1 sequence (P25100 1-572): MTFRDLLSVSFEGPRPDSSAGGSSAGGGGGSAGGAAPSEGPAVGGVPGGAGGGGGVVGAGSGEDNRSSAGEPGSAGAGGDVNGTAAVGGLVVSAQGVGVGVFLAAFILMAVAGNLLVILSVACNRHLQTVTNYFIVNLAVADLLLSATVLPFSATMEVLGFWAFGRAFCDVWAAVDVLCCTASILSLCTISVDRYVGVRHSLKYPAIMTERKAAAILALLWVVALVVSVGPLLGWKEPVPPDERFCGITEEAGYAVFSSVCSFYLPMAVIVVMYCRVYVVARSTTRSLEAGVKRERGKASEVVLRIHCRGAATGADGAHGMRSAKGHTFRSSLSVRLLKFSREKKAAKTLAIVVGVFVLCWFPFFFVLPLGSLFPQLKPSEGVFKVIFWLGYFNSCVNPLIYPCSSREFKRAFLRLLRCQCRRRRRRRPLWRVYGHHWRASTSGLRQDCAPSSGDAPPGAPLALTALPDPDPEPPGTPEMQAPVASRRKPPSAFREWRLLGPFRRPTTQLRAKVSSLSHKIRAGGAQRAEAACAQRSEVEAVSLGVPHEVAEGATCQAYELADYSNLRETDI
Description: Measurement of α1D adrenaline receptor binding inhibitory activity ([3H] prazosin binding to membrane fraction of CHO-K1 cells expressing the receptor). The settings on record: α1D adrenaline receptor binding inhibitory rate at 1 μM compound; [3H] prazosin 2.5 nM; CHO-K1 membrane fraction 20 μg/well; room temperature 1 hr. The protocol:
Measurement of α1D Adrenaline Receptor Binding Inhibitory Activity
Genetic manipulation methods described below are based on the methods described in Maniatis et al., Molecular Cloning, Cold Spring Harbor Laboratory, 1989, the protocol appended to a reagent and the like.
α1D Adrenaline receptor gene was cloned from human liver cDNA by the PCR method. PCR reaction was performed by Gene Amp PCR System 9700 (Applied Biosystems) with 50 pmol each of the primer set 5′-[…]-3′ [SEQ ID NO: 1] and 5′-[…]-3′ [SEQ ID NO: 2] prepared in reference to the base sequence of the α1D adrenaline receptor gene reported by DEBRA A. et al. (J. Pharmacol. Exp. Ter., 272, 134-142 (1995)), 200 ng of human brain hippocampus cDNA library (Takara Shuzo Co., Ltd.) as a template and TaKaRa LA-Taq DNA Polymerase (Takara Shuzo Co., Ltd.) (reaction conditions: 45 cycles of 94° C. for 15 sec, 68° C. for 3.5 min).
The PCR fragment obtained above was digested with restriction enzymes NheI (Takara Shuzo Co., Ltd.) and Kpn I (Takara Shuzo Co., Ltd.), and applied to agarose gel electrophoresis to recover DNA fragments. The DNA fragments were ligated with animal cell expression plasmid pcDNA3.1/Zeo (Invitrogen) digested with NheI and Kpn I, by DNA Ligation Kit Ver.2 (Takara Shuzo Co., Ltd.), and transformed the competent cells of Escherichia coli JM109 to obtain plasmid, pcDNA3.1/Zeo-Adreα1D.
CHO-K1 cells passage cultured in HamF12 medium (Invitrogen) containing 10% fetal bovine serum (TRACE SCIENCETIFIC) in a 150 cm^2 culture flask (Corning Coaster) were detached with 0.5 g/L trypsin-0.2 g/L EDTA (Invitrogen), and the cells were washed with D-PBS(−) (Invitrogen) and centrifuged (1000 rpm, 5 min). Then, using Gene Pulser II (BioRad), DNA was introduced into the cells under the following conditions. 1×10^7 cells suspended in D-PBS(−) (700 μl) and 10 μg of pcDNA3.1/Zeo-Adreα1D were added in a 0.4 cm gap cuvette (BioRad), and electroporation was performed under voltage 0.25 kV, capacitance 960 μF. The cells were cultured in HamF12 medium containing 10% fetal bovine serum and 250 μg/mL Zeocin (Invitrogen) and the Zeocin resistance clones were selected.
Plurality of Zeocin resistance clones were selected and cultured in a cell culture flask (150 cm^2) until semiconfluent, and the cellular membrane fraction was prepared as follows.
The semiconfluent cells were detached with 0.02% EDTA containing D-PBS(−) and recovered by centrifugation. The cells were suspended in membrane preparation buffer (10 mM NaHCO3 pH 7.4, protease inhibitor cocktail (Roche)) and disrupted by 3 times of treatment in a polytron homogenizer (model PT-3100, KINEMATICA AG) at 20000 rpm for 20 seconds. After disruption, the cells were centrifuged at 2000 rpm for 10 min and the supernatant containing membrane fractions was obtained. The supernatant was centrifuged using an ultracentrifuge (model L8-70M, rotor 70 Ti, Beckman Instruments) at 30000 rpm for 1 hr to obtain a precipitate containing membrane fractions. The obtained membrane fraction of each clone was subjected to the binding experiment shown below.
The membrane fraction (20 μg/well) and [^3H] prazosin (2.5 nM, PerkinElmer Lifescience), as a ligand, were diluted with a binding assay buffer (50 mM Tris-HCl, 10 mM MgCl2, 0.5% BSA, protease inhibitor cocktail pH 7.5), added to a 96 well microplate, and reacted at room temperature for 1 hr. For the measurement of non-specific binding, phentolamine (Sigma) was further added to 10 μM. Then, the reaction mixture was filtered and transferred to unifilter GF/C (PerkinElmer Lifescience) by using a cell harvester (PerkinElmer Lifescience). The filter was washed 3 times with ice-cooled 50 mM Tris buffer (pH 7.5). After drying the filter, MicroScinti 0 (PerkinElmer Lifescience) was added to the filter and the radioactivity was measured by TopCount (PerkinElmer Lifescience). […]
`CS(=O)(=O)c1ccc(Cl)cc1Cn1cc(Cl)cc(C(N)=O)c1=N` [Example 1, 5-chloro-1-[5-chloro-2-(methylsulfonyl)benzyl]-2-imino-1,2-dihydropyridine-3-carboxamide hydrochloride] registered an inhibition at 1 µM of 100%.
Take `Cc1ccc(S(C)(=O)=O)c(Cn2cc(Cl)cc(C(N)=O)c2=N)c1` [Example 8, 5-chloro-2-imino-1-[5-methyl-2-(methylsulfonyl)benzyl]-1,2-dihydropyridine-3-carboxamide hydrochloride]: the inhibition at 1 µM came out at 93.5%.
Under `CS(=O)(=O)c1cc(Cl)cc(Cn2cc(Cl)cc(C(N)=O)c2=N)c1` [Example 12, 5-chloro-1-[3-chloro-5-(methylsulfonyl)benzyl]-2-imino-1,2-dihydropyridine-3-carboxamide hydrochloride] stands 87.5%; under `C[S+]([O-])c1ccc(Cl)cc1Cn1cc(Cl)cc(C(N)=O)c1=N` (stereo not shown) [Example 14, 5-chloro-1-[5-chloro-2-(methylsulfinyl)benzyl]-2-imino-1,2-dihydropyridine-3-carboxamide hydrochloride], 92%.
With `CS(=O)(=O)c1cc(Cn2cc(Cl)cc(C(N)=O)c2=N)ccc1Cl` [Example 15, 5-chloro-1-[4-chloro-3-(methylsulfonyl)benzyl]-2-imino-1,2-dihydropyridine-3-carboxamide hydrochloride], the inhibition at 1 µM is 72.8%.
Next, `CCS(=O)(=O)c1ccc(Cl)cc1Cn1cc(Cl)cc(C(N)=O)c1=N` [Example 17, 5-chloro-1-[5-chloro-2-(ethylsulfonyl)benzyl]-2-imino-1,2-dihydropyridine-3-carboxamide hydrochloride]: 100%; `CS(=O)(=O)c1ccc(F)cc1Cn1cc(Cl)cc(C(N)=O)c1=N` [Example 18, 5-chloro-1-[5-fluoro-2-(methylsulfonyl)benzyl]-2-imino-1,2-dihydropyridine-3-carboxamide hydrochloride]: 93.5%; `CCS(=O)(=O)c1ccc(F)cc1Cn1cc(Cl)cc(C(N)=O)c1=N` [Example 24, 5-chloro-1-[2-(ethylsulfonyl)-5-fluorobenzyl]-2-imino-1,2-dihydropyridine-3-carboxamide hydrochloride]: 98.4%.
`N=c1c(C(N)=O)cc(Cl)cn1Cc1cc(Cl)ccc1S(N)(=O)=O` [Example 28, 5-chloro-1-(5-chloro-2-sulfamoylbenzyl)-2-imino-1,2-dihydropyridine-3-carboxamide hydrochloride] returned an inhibition at 1 µM of 91.2%.
`N=c1c(C(N)=O)cc(Cl)cn1Cc1cc(Cl)ccc1N1CCCC1=O` [Example 35, 5-chloro-1-[5-chloro-2-(2-oxopyrrolidin-1-yl)benzyl]-2-imino-1,2-dihydropyridine-3-carboxamide hydrochloride] registered an inhibition at 1 µM of 89%.

In general, inhibition refers to how much of the control response was suppressed.
